Experimental data taken from article PMC8546689, “High-Throughput Screen for Inhibitors of the Type IV Pilus Assembly ATPase PilB” (mSphere, 2021).
One block for each compound: values may come before it.

Key:
Type in all cases: binding
[1] = target: T1, PilB (CtPilB), type IV pilus assembly ATPase (Chloracidobacterium thermophilum, UniProt G2LDI3); experiment: competitive displacement of fluorescent MANT-ATP
T1 construct: gene Cabther_A1696

[2] = target: T1, PilB (CtPilB), type IV pilus assembly ATPase; experiment: competitive displacement of fluorescent MANT-ATP (IC50 […])
[3] = target: T1, PilB (CtPilB), type IV pilus assembly ATPase; experiment: fluorescence enhancement titration of MANT-ATP with CtPilB

T1 sequence (G2LDI3 entry or part of it): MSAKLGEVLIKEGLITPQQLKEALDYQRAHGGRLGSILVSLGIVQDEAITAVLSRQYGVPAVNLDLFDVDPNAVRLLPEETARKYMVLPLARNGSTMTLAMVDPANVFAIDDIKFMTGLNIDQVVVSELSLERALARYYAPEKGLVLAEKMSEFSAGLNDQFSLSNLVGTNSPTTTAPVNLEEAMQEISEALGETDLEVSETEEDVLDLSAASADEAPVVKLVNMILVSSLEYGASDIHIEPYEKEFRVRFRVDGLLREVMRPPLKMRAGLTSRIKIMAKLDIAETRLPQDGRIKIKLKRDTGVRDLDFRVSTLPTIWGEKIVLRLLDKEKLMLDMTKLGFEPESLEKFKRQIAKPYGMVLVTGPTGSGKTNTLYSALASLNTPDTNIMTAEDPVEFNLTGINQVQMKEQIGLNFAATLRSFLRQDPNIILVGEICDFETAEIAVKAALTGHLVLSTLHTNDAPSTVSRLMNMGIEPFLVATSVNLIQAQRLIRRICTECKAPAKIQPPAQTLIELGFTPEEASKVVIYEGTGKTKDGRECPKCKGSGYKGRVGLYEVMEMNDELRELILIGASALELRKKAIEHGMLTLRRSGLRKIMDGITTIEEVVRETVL

IC50 [1]: 3.07 µM
Structure (SMILES): Nc1ncnc2c1ncn2[C@@H]1O[C@H](COP(=O)(O)OP(=O)(O)O)[C@@H](O)[C@H]1O [ADP]

Structure (SMILES): Nc1ncnc2c1ncn2[C@@H]1O[C@H](COP(=O)(O)OP(=O)(O)OP(=O)(O)O)[C@@H](O)[C@H]1O [ATP]
Ki [2]: 2200 nM

Kd [3]: 290 ± 10 nM
Structure (SMILES): CNc1ccccc1C(=O)O[C@H]1[C@@H](O)[C@H](n2cnc3c(N)ncnc32)O[C@@H]1CO[P@@](=O)(O)O[P@](=O)(O)OP(=O)(O)O [MANT-ATP]
